Columns and labels:
[1] = tested on: Neisseria meningitidis; assay: Metabolic labeling of living bacteria, click chemistry and fluorescence microscopy; assay type: cell-based; parameters: key: +: strains showing highly distinctive fluorescence on their membrane, indicative of an effective metabolic incorporation of the chemical reporter; −: the absence of labeling; conditions: compound 10 mM, 24 hours, fluorochrome-alkyne click 30 minutes
[2] = tested on: Listeria monocytogenes ½; assay: as above; assay type: cell-based; parameters: key to labeling (fluorescence on membrane, metabolic incorporation of the chemical reporter): +: strains showing highly distinctive fluorescence on their membrane, indicative of an effective metabolic incorporation of the chemical reporter; −: the absence of labeling
[3] = tested on: Serratia marcescens; assay: as above; assay type: cell-based; parameters: key: +: strains showing highly distinctive fluorescence on their membrane, indicative of an effective metabolic incorporation of the chemical reporter; −: the absence of labeling; conditions: second of two entries (Table 1 order: Clinical strain), compound 10 mM, 24 hours, fluorochrome-alkyne click 30 minutes
[4] = tested on: Serratia marcescens; assay: as above; assay type: cell-based; parameters: key: +: strains showing highly distinctive fluorescence on their membrane, indicative of an effective metabolic incorporation of the chemical reporter; −: the absence of labeling; conditions: first of two entries (Table 1 order: CIP102446), compound 10 mM, 24 hours, fluorochrome-alkyne click 30 minutes
[5] = tested on: Escherichia coli O86; assay: as above; assay type: cell-based; parameters: key: +: strains showing highly distinctive fluorescence on their membrane, indicative of an effective metabolic incorporation of the chemical reporter; −: the absence of labeling; conditions: compound 10 mM, 24 hours, fluorochrome-alkyne click 30 minutes
[6] = tested on: Staphylococcus aureus; assay: as above; assay type: cell-based; parameters: key to labeling (fluorescence on membrane, metabolic incorporation of the chemical reporter): +: strains showing highly distinctive fluorescence on their membrane, indicative of an effective metabolic incorporation of the chemical reporter; −: the absence of labeling
[7] = tested on: Neisseria gonorrhoeae; assay: as above; assay type: cell-based; parameters: key to labeling (fluorescence on membrane, metabolic incorporation of the chemical reporter): +: strains showing highly distinctive fluorescence on their membrane, indicative of an effective metabolic incorporation of the chemical reporter; −: the absence of labeling
[8] = tested on: Klebsiella pneumoniae; assay: as above; assay type: cell-based; parameters: key: +: strains showing highly distinctive fluorescence on their membrane, indicative of an effective metabolic incorporation of the chemical reporter; −: the absence of labeling; conditions: first of two entries (Table 1 order: CIP 101114), compound 10 mM, 24 hours, fluorochrome-alkyne click 30 minutes
[9] = tested on: Proteus mirabilis; assay: as above; assay type: cell-based; parameters: key: +: strains showing highly distinctive fluorescence on their membrane, indicative of an effective metabolic incorporation of the chemical reporter; −: the absence of labeling; conditions: compound 10 mM, 24 hours, fluorochrome-alkyne click 30 minutes
[10] = tested on: Providenda stuartii; assay: as above; assay type: cell-based, Providencia stuartii; parameters: key: +: strains showing highly distinctive fluorescence on their membrane, indicative of an effective metabolic incorporation of the chemical reporter; −: the absence of labeling; conditions: compound 10 mM, 24 hours, fluorochrome-alkyne click 30 minutes
[11] = tested on: Staphylococcus aureus aureus; assay: as above; assay type: cell-based; parameters: key to labeling (fluorescence on membrane, metabolic incorporation of the chemical reporter): +: strains showing highly distinctive fluorescence on their membrane, indicative of an effective metabolic incorporation of the chemical reporter; −: the absence of labeling
[12] = tested on: Stenotrophomonas maltophilia; assay: as above; assay type: cell-based; parameters: key: +: strains showing highly distinctive fluorescence on their membrane, indicative of an effective metabolic incorporation of the chemical reporter; −: the absence of labeling; conditions: compound 10 mM, 24 hours, fluorochrome-alkyne click 30 minutes
[13] = tested on: Pseudomonas fluorescens Migula; assay: as above; assay type: cell-based; parameters: key: +: strains showing highly distinctive fluorescence on their membrane, indicative of an effective metabolic incorporation of the chemical reporter; −: the absence of labeling; conditions: compound 10 mM, 24 hours, fluorochrome-alkyne click 30 minutes
[14] = tested on: Klebsiella pneumoniae; assay: as above; assay type: cell-based; parameters: key: +: strains showing highly distinctive fluorescence on their membrane, indicative of an effective metabolic incorporation of the chemical reporter; −: the absence of labeling; conditions: second of two entries (Table 1 order: Clinical strain), compound 10 mM, 24 hours, fluorochrome-alkyne click 30 minutes
[15] = tested on: Enterococcus faecalis; assay: as above; assay type: cell-based; parameters: key to labeling (fluorescence on membrane, metabolic incorporation of the chemical reporter): +: strains showing highly distinctive fluorescence on their membrane, indicative of an effective metabolic incorporation of the chemical reporter; −: the absence of labeling
[16] = tested on: Salmonella Typhimurium 12023; assay: as above; assay type: cell-based; parameters: key: +: strains showing highly distinctive fluorescence on their membrane, indicative of an effective metabolic incorporation of the chemical reporter; −: the absence of labeling; conditions: compound 10 mM, 24 hours, fluorochrome-alkyne click 30 minutes
[17] = tested on: Legionella pneumophila sg6; assay type: cell-based; parameters: key: +: strains showing highly distinctive fluorescence on their membrane, indicative of an effective metabolic incorporation of the chemical reporter; −: the absence of labeling; conditions: compound 10 mM, 24 hours, fluorochrome-alkyne click 30 minutes
[18] = tested on: Micrococcus luteus; assay: Metabolic labeling of living bacteria, click chemistry and fluorescence microscopy; assay type: cell-based; parameters: key to labeling (fluorescence on membrane, metabolic incorporation of the chemical reporter): +: strains showing highly distinctive fluorescence on their membrane, indicative of an effective metabolic incorporation of the chemical reporter; −: the absence of labeling
[19] = tested on: Listeria monocytogenes ½a; assay: as above; assay type: cell-based; parameters: key: +: strains showing highly distinctive fluorescence on their membrane, indicative of an effective metabolic incorporation of the chemical reporter; −: the absence of labeling; conditions: compound 10 mM, 24 hours, fluorochrome-alkyne click 30 minutes
[20] = tested on: Vibrio cholerae; assay: as above; assay type: cell-based; parameters: key: +: strains showing highly distinctive fluorescence on their membrane, indicative of an effective metabolic incorporation of the chemical reporter; −: the absence of labeling; conditions: compound 10 mM, 24 hours, fluorochrome-alkyne click 30 minutes
[21] = tested on: Escherichia coli K12; assay: as above; assay type: cell-based; parameters: key: +: strains showing highly distinctive fluorescence on their membrane, indicative of an effective metabolic incorporation of the chemical reporter; −: the absence of labeling; conditions: compound 10 mM, 24 hours, fluorochrome-alkyne click 30 minutes
[22] = tested on: Staphylococcus epidermis; assay: as above; assay type: cell-based; parameters: key to labeling (fluorescence on membrane, metabolic incorporation of the chemical reporter): +: strains showing highly distinctive fluorescence on their membrane, indicative of an effective metabolic incorporation of the chemical reporter; −: the absence of labeling
[23] = compound 10 mM, 24 hours, fluorochrome-alkyne click 30 minutes

[N-]=[N+]=NC[C@@H](O)[C@@H](O)[C@H](O)[C@H](O)CC(=O)C(=O)O [Kdo-N3, 8-azido-3,8-dideoxy-D-manno-octulosonate]
did not assimilate: assimilation by the bacteria (in words) ([2]; Listeria monocytogenes (strain not given)) | assimilation by the bacteria (in words) [6] | assimilation by the bacteria (in words) [7] | assimilation by the bacteria (in words) [11] | assimilation by the bacteria (in words) [15] | assimilation by the bacteria (in words) [18] | assimilation by the bacteria (in words) [22]
+: labeling (fluorescence on membrane, metabolic incorporation of the chemical reporter) [1] | labeling (fluorescence on membrane, metabolic incorporation of the chemical reporter) [3] | labeling (fluorescence on membrane, metabolic incorporation of the chemical reporter) [4] | labeling (fluorescence on membrane, metabolic incorporation of the chemical reporter) [5] | labeling (fluorescence on membrane, metabolic incorporation of the chemical reporter) [8] | labeling (fluorescence on membrane, metabolic incorporation of the chemical reporter) [9] | labeling (fluorescence on membrane, metabolic incorporation of the chemical reporter) [10] | labeling (fluorescence on membrane, metabolic incorporation of the chemical reporter) [12] | labeling (fluorescence on membrane, metabolic incorporation of the chemical reporter) [13] | labeling (fluorescence on membrane, metabolic incorporation of the chemical reporter) [14] | labeling (fluorescence on membrane, metabolic incorporation of the chemical reporter) [16] | labeling (fluorescence on membrane, metabolic incorporation of the chemical reporter) [17] | labeling (fluorescence on membrane, metabolic incorporation of the chemical reporter) [20] | labeling (fluorescence on membrane, metabolic incorporation of the chemical reporter) [21]
−: labeling (fluorescence on membrane, metabolic incorporation of the chemical reporter) ([2]; Listeria monocytogenes ½, compound 10 mM, 24 hours, fluorochrome-alkyne click 30 minutes) | labeling (fluorescence on membrane, metabolic incorporation of the chemical reporter) [6, 23] | labeling (fluorescence on membrane, metabolic incorporation of the chemical reporter) [7, 23] | labeling (fluorescence on membrane, metabolic incorporation of the chemical reporter) [11, 23] | labeling (fluorescence on membrane, metabolic incorporation of the chemical reporter) [15, 23] | labeling (fluorescence on membrane, metabolic incorporation of the chemical reporter) [18, 23] | labeling (fluorescence on membrane, metabolic incorporation of the chemical reporter) [19] | labeling (fluorescence on membrane, metabolic incorporation of the chemical reporter) [22, 23]

Reference: patent US11199542B2, “Method for labeling specifically living bacteria comprising the use of modified non endogenous monosaccharide compounds” (priority 2015, dated 2021)
